# Results taken from patent publication US20200354327A1, “COMPOUND HAVING STAT3 INHIBITORY ACTIVITY AND USE THEREOF” (CYTUS H&B CO., LTD., priority 2017, published 2020).
# Legend:
# [1] = test system: MDA-MB-231 cells; test: Matrigel invasion assay, MDA-MB-231; assay type: cell-based, human; details: MDA-MB-231, 24 hours, versus DMSO
# Procedure: The growth factor-reduced Matrigel was diluted with a serum-free culture solution at a 1:3 ratio, transferred to a 24-well plate, and solidified at 37° C. for 5 hours. The cells were placed in a culture solution containing 1% serum and added to the solidified Matrigel, 600 μl of a culture solution containing 10% serum to which fibronectin was added at a concentration of […] was added thereto, and the cells were cultured for 24 hours. Thereafter, the cells were fixed and stained by adding Diffquick solution thereto and then observed under a Leica Application Suite microscope, and images were taken.
# [2] = test system: U87-MG cells; test: Wound healing assay, U87-MG; assay type: cell-based, human; details: 24 hours
# Procedure: Wound healing assay was performed as previously described (Jung J E, et al. FASEB J. 19, 1296-1298 (2005)). The respective cells were dispensed into a 12-well plate (U87-MG: 5×10^5 cells/ml; MDA-MB-231: 3×10^5 cells/ml) and cultured until the cells proliferated 90% or more. Cells scraped off from the plate with the tip of the pipette were washed two times with PBS. After 24 hours, the proliferation (invasion) of cells at the part from which the cells were had been removed was observed under a microscope, and images were taken.
# [3] = target: T1, STAT3 (Homo sapiens, UniProt P40763); test: Western blot in STAT3-phosphorylated human malignant glioblastoma; assay type: cell-based; design: endogenous in cells; host or cells: L540, HDLM-2, U87-MG, MDA-MB-231, further human glioblastoma and breast cancer lines
# Procedure: Western blot analysis was performed (Jung J E, et al. FASEB J. 19, 1296-1298 (2005)). The cells were washed two times with PBS and suspended in the lysate (50 mM Tris-HCl, pH 7.4, 350 mM NaCl, 1% Triton X-100, 0.5% Nonidet P-40, 10% glycerol, 0.1% SDS, 1 mM EDTA, 1 mM EGTA, 1 mM Na3VO4, 1 mM PMSF, protease and phosphorylation inhibitor) and the cell membrane and nuclear membrane were crushed to lyse the cells. The insoluble protein fraction was removed by centrifugation, and the supernatant was mixed with SDS electrophoresis buffer and electrophoresis (SDS-PAGE) was performed to detect the protein with the desired antibody and to confirm the protein expression level.
# Target sequence in this assay (P40763 whole entry): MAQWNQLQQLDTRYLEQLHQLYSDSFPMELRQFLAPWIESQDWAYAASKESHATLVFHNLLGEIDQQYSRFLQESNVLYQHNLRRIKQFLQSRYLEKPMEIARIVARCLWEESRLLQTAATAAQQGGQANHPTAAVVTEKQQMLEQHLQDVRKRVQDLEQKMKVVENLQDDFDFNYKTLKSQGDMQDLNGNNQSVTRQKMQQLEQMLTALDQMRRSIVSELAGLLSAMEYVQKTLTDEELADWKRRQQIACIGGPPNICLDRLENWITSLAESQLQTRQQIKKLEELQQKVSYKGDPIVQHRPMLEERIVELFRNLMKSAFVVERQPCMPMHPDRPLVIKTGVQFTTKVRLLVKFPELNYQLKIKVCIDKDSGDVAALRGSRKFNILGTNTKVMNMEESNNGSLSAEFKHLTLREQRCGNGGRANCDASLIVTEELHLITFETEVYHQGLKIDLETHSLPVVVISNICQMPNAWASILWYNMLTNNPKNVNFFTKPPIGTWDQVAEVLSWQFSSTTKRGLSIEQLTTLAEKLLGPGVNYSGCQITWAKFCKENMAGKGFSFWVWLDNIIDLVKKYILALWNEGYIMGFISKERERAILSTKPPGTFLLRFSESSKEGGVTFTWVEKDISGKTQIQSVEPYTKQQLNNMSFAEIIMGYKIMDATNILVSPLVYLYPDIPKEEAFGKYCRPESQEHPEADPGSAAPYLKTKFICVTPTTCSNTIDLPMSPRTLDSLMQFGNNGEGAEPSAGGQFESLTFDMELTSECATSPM
# [4] = target: T1, STAT3; test: STAT3 dimerization (STAT3-Flag / STAT3-HA, immunoprecipitation and western blot in HEK293T); assay type: cell-based; design: Flag; HA; expressed in transfected cells; host or cells: HEK293T
# Target sequence in this assay (P40763 whole entry, species assumed): as the sequence (P40763 whole entry) above
# [5] = target: T1, STAT3; test: Nuclear translocation of STAT3 (fluorescence microscope); assay type: cell-based; design: endogenous in cells; host or cells: L540, HDLM-2, U87-MG, MDA-MB-231, further human glioblastoma and breast cancer lines; details: compared with the control group
# Target sequence in this assay (P40763 whole entry): as above
structure (smiles),measurement,setting,value
"Clc1ccc(OCc2noc(C(Cl)(Cl)Cl)n2)c(Cl)c1 [ODZ10117, 3-(2,4-dichloro-phenoxymethyl)-5-trichloromethyl-[1,2,4]oxadiazole]",cell invasion,[1],significantly decreased cell invasion in both the two cell lines
same,cell migration,[2],significantly inhibited the migration of these cells
same,phosphorylation of tyrosine 705 of STAT3,[3],inhibited the phosphorylation of tyrosine 705 of STAT3 in STAT3-phosphorylated human malignant glioblastoma in a concentration-dependent manner
same,time to complete inhibition of phosphorylation of STAT3 after treatment,[3],≤ 2 h
same,STAT3 inhibitory efficacy compared with known inhibitors,[3]; versus NSC628869 and NSC74859,superior STAT3 inhibitory efficacy to NSC628869 and NSC74859
same,STAT3 dimerization,[4],inhibited STAT3 dimerization
same,STAT3 dimerization inhibitory efficacy compared with napabucasin,[4],superior STAT3 dimerization inhibitory efficacy to napabucasin
same,nuclear translocation of STAT3,[5],further inhibited nuclear translocation of STAT3
